Reference: PubChem BioAssay (NCI)
Where “and” joins values, the source holds several entries; their conditions need not be identical. Equal entries are not always repeated.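 Five concentrations, 48 hours, 96-well plates. At the GI50, growth is halved. The concentration for full growth arrest is given as TGI.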 *1 amine or outer side, *2 acyl side, *3 side chain or, on linkers, in order; H or OH if unused. Where a SMILES comes first, the peptide text is derived from it. [ ]: non-standard residue; d: D form. The star is where a group is joined. X31 = CC(=O)N(C)SCC(N[*:1])C(=O)[*:2]; Fmoc = O=C(OCC1c2ccccc2-c2ccccc21)*; For = O=C*

Key:
Assay in all cases: inhibition of tumour cell growth, NCI panel, 48 h
RXF 393 renal = test system: RXF 393 renal
MDA-MB-231 breast = test system: MDA-MB-231 breast
MDA-N = test system: MDA-N
OVCAR-8 ovarian = test system: OVCAR-8 ovarian
M14 melanoma = test system: M14 melanoma
HOP-62 NSCLC = test system: HOP-62 NSCLC
HCT-116 colon = test system: HCT-116 colon
SF-268 CNS = test system: SF-268 CNS
SW-620 colon = test system: SW-620 colon
DU-145 prostate = test system: DU-145 prostate
SK-MEL-28 melanoma = test system: SK-MEL-28 melanoma
NCI-H460 lung = test system: NCI-H460 lung
A498 renal = test system: A498 renal

SMILES | TGI (RXF 393 renal) | TGI (MDA-MB-231 breast) | TGI (MDA-N) | TGI (OVCAR-8 ovarian) | TGI (M14 melanoma) | TGI (HOP-62 NSCLC) | TGI (HCT-116 colon) | TGI (SF-268 CNS) | TGI (SW-620 colon) | TGI (DU-145 prostate) | TGI (SK-MEL-28 melanoma) | TGI (NCI-H460 lung) | TGI (A498 renal) | GI50 (MDA-MB-231 breast) | GI50 (MDA-N) | GI50 (OVCAR-8 ovarian) | GI50 (NCI-H460 lung) | GI50 (HOP-62 NSCLC)
CCOC(=O)NC(=S)NC(C)c1ccccc1 (stereo not drawn) | > 100 µM | > 100 µM | > 100 µM | > 100 µM | > 100 µM | > 100 µM | > 100 µM | > 100 µM | > 100 µM | > 100 µM | > 100 µM | – | – | – | – | – | – | –
C=CCC1C2CCC(O[Si](C(C)C)(C(C)C)C(C)C)(C(C(=O)OC)C2)C1O (stereo not drawn) | – | > 100 µM | > 100 µM | > 100 µM | > 100 µM | > 100 µM | 58.2 µM | > 100 µM | > 100 µM | > 100 µM | > 100 µM | > 100 µM | > 100 µM | – | – | – | – | –
N#Cc1c(N2CCOCC2)ncn(-c2ccc(Cl)cc2)c1=O | – | – | > 100 µM | > 100 µM | > 100 µM | > 100 µM | > 100 µM | – | > 100 µM | > 100 µM | > 100 µM | > 100 µM | > 100 µM | – | – | – | – | –
CC(=O)C1C(=O)C(=O)N(c2ccc(Br)cc2)C1=O (stereo not drawn) | > 100 µM | > 100 µM | > 100 µM | > 100 µM | > 100 µM | > 100 µM | > 100 µM | > 100 µM | > 100 µM | > 100 µM | > 100 µM | > 100 µM | – | – | – | – | – | –
CN(C)C(=O)Oc1ccc(C(=S)Nc2ccccc2)cc1Br | – | – | 57.4 µM | 39.4 µM | 39.8 µM | > 100 µM | > 100 µM | 23.5 µM | > 100 µM | > 100 µM | > 100 µM | > 100 µM | – | – | – | – | – | –
Cc1[nH]c2ccccc2c1C1=CC(=O)N(c2ccccc2)C1=O | 26.6 µM | > 100 µM | – | 50 µM | 32.2 µM | 25.5 µM | 22.7 µM | > 100 µM | 37.8 µM | 52.5 µM | 20.5 µM | 39.4 µM | 60.3 µM | – | – | – | – | –
COc1nc(OC)nc(Sc2ccc(Sc3ccc(Sc4nc(OC)nc(OC)n4)cc3)cc2)n1 | > 100 µM | – | – | > 100 µM | > 100 µM | – | > 100 µM | > 100 µM | > 100 µM | – | > 100 µM | > 100 µM | > 100 µM | – | – | – | – | –
Cc1ccc(Nc2cn(COCc3ccccc3)c(=O)[nH]c2=O)cc1 | > 100 µM | – | > 100 µM | – | > 100 µM | > 100 µM | > 100 µM | > 100 µM | > 100 µM | > 100 µM | > 100 µM | > 100 µM | > 100 µM | – | – | – | – | –
COc1cc2c(cc1OCCCCN1CCN(CCCCOc3cc4c(cc3OC)C(=O)N3CCC[C@H]3C=N4)CC1)N=C[C@@H]1CCCN1C2=O | 0.507 µM | 0.182 µM | – | 18.6 µM | 0.0936 µM | > 42 µM | 22.5 µM | 16.5 µM | > 40 µM | > 100 µM | – | > 32 µM | 0.0692 µM | – | – | – | – | –
CC(Cc1ccc2c(c1)OCO2)N(C)C(=O)C1=CCN(C)CC1 (stereo not drawn) | > 100 µM | > 100 µM | > 100 µM | > 100 µM | > 100 µM | > 100 µM | > 100 µM | > 100 µM | > 100 µM | > 100 µM | > 100 µM | > 100 µM | – | – | – | – | – | –
CC#Cc1c(C#CC)c(OC)c2c(c1OC)C(=O)c1ccccc1C2=O | 55.1 µM | – | – | > 100 µM | > 100 µM | 45.4 µM | 72.6 µM | 78.6 µM | > 100 µM | – | > 100 µM | > 100 µM | > 100 µM | – | – | – | – | –
COC(=O)CNCC1OC2OC(C)(C)OC2C1N=[N+]=[N-] (stereo not drawn) | > 100 µM | – | > 100 µM | > 100 µM | – | > 100 µM | > 100 µM | – | > 100 µM | > 100 µM | > 100 µM | > 100 µM | > 100 µM | – | – | – | – | –
O=C1/C(=C/c2ccc(Cl)cc2)Sc2scc(-c3cccc([N+](=O)[O-])c3)[n+]21 | 7.97 µM | > 32.1 µM | 13.8 µM | – | > 35 µM | > 69.7 µM | – | 14.6 µM | 3.82 µM | > 33.3 µM | 10.2 µM | 20.3 µM | – | – | – | – | – | –
CC(=O)N(C)SCC(NC(=O)C(Cc1ccccc1)NC(=O)OCC1c2ccccc2-c2ccccc21)C(=O)NC(Cc1ccccc1)C(=O)NC(Cc1cn(C=O)c2ccccc12)C(=O)NC(CCCCNC(=O)OCC1c2ccccc2-c2ccccc21)C(=O)NC(C(=O)NC(CSN(C)C(C)=O)C(=O)NC(C(N)=O)C(C)O)C(C)O (stereo not drawn) (Fmoc-F[X31]FW(For)K(Fmoc)T[X31]T-NH2; configuration not given here) | 72.3 µM | 51.4 µM | > 100 µM | > 100 µM | > 100 µM | > 100 µM | > 100 µM | > 100 µM | > 100 µM | > 100 µM | > 100 µM | > 100 µM | – | – | – | – | – | –
Cc1nc2nn(C)cc2c(=O)n1/N=C/c1ccccc1 | > 100 µM | – | – | > 100 µM | – | > 100 µM | > 100 µM | > 100 µM | > 100 µM | – | > 100 µM | > 100 µM | > 100 µM | – | – | – | – | –
COc1ccc(/C=C(\Cl)c2ccc(OC)cc2)cc1 | – | – | – | > 100 µM | > 100 µM | > 100 µM | > 100 µM | > 100 µM | > 100 µM | – | > 100 µM | > 100 µM | > 100 µM | – | – | – | – | –
O=C1c2ccccc2C(=O)c2c(O)c(NCCNCCO)cc(O)c21 | 13.4 µM | – | – | 12.6 µM | 16 µM | 11.5 µM | 11.9 µM | 15.5 µM | 12 µM | – | 16.6 µM | 12.3 µM | 21 µM | – | – | – | – | –
O=C1Nc2ccc(Br)cc2/C1=C/C(=O)c1ccccc1 | 5.45 µM | 29.5 µM | – | 5.31 µM | 28.1 µM | 61.2 µM | 9.04 µM | 50.8 µM | 6.42 µM | 23.8 µM | 32.1 µM | 36.9 µM | 34.6 µM | – | – | – | – | –
Cn1nc(C(=O)N2CC(CCl)c3c2cc([N+](=O)[O-])c2ccccc32)cc1NC(=O)Nc1cc(C(=O)N2CC(CCl)c3c2cc([N+](=O)[O-])c2ccccc32)nn1C (stereo not drawn) | – | > 100 µM | > 100 µM | – | > 100 µM | > 100 µM | > 100 µM | > 100 µM | – | > 100 µM | > 100 µM | > 100 µM | > 100 µM | – | – | – | – | –
Cc1ccccc1NC(=O)CSc1nnc(Cc2ccccc2)o1 | > 100 µM | – | – | > 100 µM | > 100 µM | > 100 µM | > 100 µM | > 100 µM | – | – | > 100 µM | > 100 µM | – | – | – | – | – | –
Cc1ccc(F)c2c(=O)cc(-c3ccccc3)[nH]c12 | > 100 µM | – | – | > 100 µM | > 100 µM | > 100 µM | > 100 µM | > 100 µM | > 100 µM | – | > 100 µM | > 100 µM | – | – | – | – | – | –
CN(C)Cc1[nH]c2ccccc2c1C(=O)c1ccccc1 | – | – | – | > 100 µM | > 100 µM | > 100 µM | > 100 µM | > 100 µM | > 100 µM | – | > 100 µM | > 100 µM | – | – | – | – | – | –
CSc1nc(-c2ccc(Cl)cc2)c(C#N)c(=O)[nH]1 | > 100 µM | > 100 µM | – | > 100 µM | > 100 µM | > 100 µM | > 100 µM | > 100 µM | > 100 µM | > 100 µM | > 100 µM | > 100 µM | > 100 µM | – | – | – | – | –
CC(=O)C1=NN(c2ccccc2)C2(S1)SC(c1ccccc1)(c1ccccc1)c1ccccc12 (stereo not drawn) | 65.7 µM | – | – | > 100 µM | > 100 µM | > 100 µM | > 100 µM | > 100 µM | > 100 µM | – | > 100 µM | > 100 µM | > 100 µM | – | – | – | – | –
CC(=O)Oc1cc(S(=O)(=O)Nc2n[nH]c(N)n2)c(S)cc1Cl | – | > 100 µM | > 100 µM | > 100 µM | > 100 µM | > 100 µM | > 100 µM | – | > 100 µM | > 100 µM | > 100 µM | > 100 µM | > 100 µM | – | – | – | – | –
Cc1cc(C(O)CNC(C)CCn2cnc3c2c(=O)n(C)c(=O)n3C)ccc1O (stereo not drawn) | > 100 µM | > 100 µM | – | > 100 µM | > 100 µM | > 100 µM | > 100 µM | > 100 µM | > 100 µM | > 100 µM | > 100 µM | > 100 µM | > 100 µM | – | – | – | – | –
CC(Nc1n[nH]c(=O)c2c1nnn2Cc1ccccc1)c1ccccc1 (stereo not drawn) | – | > 100 µM | > 100 µM | > 100 µM | > 100 µM | > 100 µM and 86 µM | > 100 µM | – | – | > 100 µM | > 100 µM | > 100 µM | – | > 100 µM and 49.8 µM | > 100 µM and 32.3 µM | > 100 µM and 44.5 µM | > 100 µM and 31 µM | > 100 µM and 21.7 µM
CCCOP(=S)(N1CC1)N1CC1 | > 100 µM | – | – | > 100 µM | > 100 µM | > 100 µM | > 100 µM | > 100 µM | > 100 µM | – | > 100 µM | > 100 µM | > 100 µM | – | – | – | – | –
O=C(Nc1ccc(S(=O)(=O)Nc2ncccn2)cc1)c1c2ccccc2nc2ccccc12 | – | > 100 µM | > 100 µM | > 100 µM | > 100 µM | > 100 µM | > 100 µM | > 100 µM | > 100 µM | > 100 µM | > 100 µM | > 100 µM | > 100 µM | – | – | – | – | –
